# The source made the active and inactive calls. No cut-off for these calls is given here.
# Tests used:
# [1] = target: Integrin alpha-V/beta-3 (Homo sapiens, UniProt P05106+P06756); assay: Inhibition of alphaVbeta3 integrin receptor expressed in human 293 cells; format: cell-based, HEK293
# [2] = target: Integrin alpha-V/beta-6 (Homo sapiens, UniProt P06756+P18564); assay: Inhibition of alpha-V-beta-6 integrin receptor in human HT29 cells; format: cell-based, HT-29
# [3] = Bioavailability in mouse at 20 mg/kg, po; format: ADME, organism-based; details: in vivo
# [4] = Half life in mouse at 20 mg/kg po or 10 mg/kg iv; format: ADME, organism-based; details: in vivo
# [5] = tested on: M21; assay: Inhibition of tumor growth in twice daily ip dosed SCID mouse implanted with human M21 cells after 28 days; format: functional, organism-based
# [6] = tested on: M21; assay: Decrease in tumor volume in SCID mouse implanted with human M21 cells at 100 mg/kg, ip twice daily after 28 days relative to control; format: functional; set-up: scale not given: the % may be the effect or the level left; details: route intraperitoneal
# [7] = tested on: M21; assay: Decrease in tumor weight in SCID mouse implanted with human M21 cells at 100 mg/kg, ip twice daily after 28 days relative to control; format: functional; set-up: scale not given: the % may be the effect or the level left; details: route intraperitoneal
# [8] = tested on: Colon 26; assay: Inhibition of tumor growth in twice daily ip dosed BALB/c mouse implanted with mouse colon 26 tumor cells after 21 days; format: functional, organism-based
# [9] = tested on: Colon 26; assay: Decrease in tumor volume in BALB/c mouse implanted with mouse colon 26 tumor cells at 100 mg/kg, ip twice daily after 21 days relative to control; format: functional; set-up: scale not given: the % may be the effect or the level left; details: route intraperitoneal
# [10] = tested on: Colon 26; assay: Decrease in tumor weight in BALB/c mouse implanted with colon 26 tumor cells at 100 mg/kg, ip twice daily after 21 days relative to control; format: functional; set-up: scale not given: the % may be the effect or the level left; details: route intraperitoneal
# [11] = tested on: Mus musculus; assay: Decrease in colon 26 tumor-induced hypercalcemia in BALB/c mouse at 100 mg/kg, ip twice daily; format: functional; set-up: scale not given: the % may be the effect or the level left; details: route intraperitoneal
# [12] = Drug level in BALB/c mouse plasma after 6 hrs at 1 mg/kg, ip; format: ADME, organism-based; set-up: dose 1 mg/kg, route intraperitoneal; details: read-out: Drug uptake
# [13] = Drug level in BALB/c mouse plasma after 6 hrs at 10 mg/kg, ip; format: ADME, organism-based; set-up: dose 10 mg/kg, route intraperitoneal; details: read-out: Drug uptake
# [14] = Drug level in BALB/c mouse plasma after 6 hrs at 100 mg/kg, ip; format: ADME, organism-based; set-up: dose 100 mg/kg, route intraperitoneal; details: read-out: Drug uptake
# Chain of Integrin alpha-V/beta-6 (P06756 31-889 limits assumed): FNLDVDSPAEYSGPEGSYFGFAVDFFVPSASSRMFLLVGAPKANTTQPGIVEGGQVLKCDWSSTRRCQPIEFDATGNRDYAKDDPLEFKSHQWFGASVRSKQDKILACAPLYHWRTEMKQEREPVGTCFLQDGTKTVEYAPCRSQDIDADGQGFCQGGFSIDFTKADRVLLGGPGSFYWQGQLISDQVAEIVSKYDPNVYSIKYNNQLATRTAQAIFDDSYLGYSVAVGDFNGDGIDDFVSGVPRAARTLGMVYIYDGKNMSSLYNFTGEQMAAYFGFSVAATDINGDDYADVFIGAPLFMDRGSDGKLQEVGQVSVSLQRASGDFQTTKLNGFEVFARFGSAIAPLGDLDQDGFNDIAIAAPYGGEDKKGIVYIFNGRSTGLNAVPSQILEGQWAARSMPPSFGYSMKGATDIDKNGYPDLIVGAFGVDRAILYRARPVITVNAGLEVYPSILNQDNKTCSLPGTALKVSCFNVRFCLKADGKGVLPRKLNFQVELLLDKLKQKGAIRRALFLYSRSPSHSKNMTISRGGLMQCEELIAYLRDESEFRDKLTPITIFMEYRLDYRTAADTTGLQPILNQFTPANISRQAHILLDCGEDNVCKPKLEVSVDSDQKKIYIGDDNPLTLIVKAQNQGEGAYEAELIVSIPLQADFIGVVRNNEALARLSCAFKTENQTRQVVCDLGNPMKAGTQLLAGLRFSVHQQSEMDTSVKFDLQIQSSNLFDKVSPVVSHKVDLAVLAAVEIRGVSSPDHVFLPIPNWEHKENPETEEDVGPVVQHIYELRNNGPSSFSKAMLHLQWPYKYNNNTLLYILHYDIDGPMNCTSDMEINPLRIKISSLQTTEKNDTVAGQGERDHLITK
# Chain of Integrin alpha-V/beta-6 (P06756 891-1048 limits assumed): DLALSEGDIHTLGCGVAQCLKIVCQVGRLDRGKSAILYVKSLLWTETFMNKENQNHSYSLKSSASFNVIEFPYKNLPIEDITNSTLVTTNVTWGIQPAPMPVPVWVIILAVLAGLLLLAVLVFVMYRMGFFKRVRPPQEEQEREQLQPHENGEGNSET
# Chain of Integrin alpha-V/beta-6 (P18564 22-788 limits assumed): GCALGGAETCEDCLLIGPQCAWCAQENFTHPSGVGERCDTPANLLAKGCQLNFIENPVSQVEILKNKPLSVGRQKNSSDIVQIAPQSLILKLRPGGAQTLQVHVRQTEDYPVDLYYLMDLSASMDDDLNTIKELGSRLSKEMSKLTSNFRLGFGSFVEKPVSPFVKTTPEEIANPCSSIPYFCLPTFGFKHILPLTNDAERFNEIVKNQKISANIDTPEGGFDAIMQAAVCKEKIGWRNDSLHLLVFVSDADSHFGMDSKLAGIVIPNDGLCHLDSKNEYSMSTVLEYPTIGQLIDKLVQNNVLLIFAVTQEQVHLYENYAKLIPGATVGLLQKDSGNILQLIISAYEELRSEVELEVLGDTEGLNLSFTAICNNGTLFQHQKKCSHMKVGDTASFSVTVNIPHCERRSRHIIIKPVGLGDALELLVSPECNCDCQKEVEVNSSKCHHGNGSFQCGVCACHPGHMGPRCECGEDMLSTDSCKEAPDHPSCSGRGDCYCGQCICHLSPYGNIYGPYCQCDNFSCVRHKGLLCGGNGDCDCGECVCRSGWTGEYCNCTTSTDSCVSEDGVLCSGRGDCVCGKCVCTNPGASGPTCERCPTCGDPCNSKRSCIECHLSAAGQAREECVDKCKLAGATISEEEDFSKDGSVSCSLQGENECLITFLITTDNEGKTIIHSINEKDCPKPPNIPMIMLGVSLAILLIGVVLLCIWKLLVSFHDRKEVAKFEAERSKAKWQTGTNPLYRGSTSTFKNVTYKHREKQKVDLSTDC
# Chain of Integrin alpha-V/beta-3 (P05106 27-788 limits assumed): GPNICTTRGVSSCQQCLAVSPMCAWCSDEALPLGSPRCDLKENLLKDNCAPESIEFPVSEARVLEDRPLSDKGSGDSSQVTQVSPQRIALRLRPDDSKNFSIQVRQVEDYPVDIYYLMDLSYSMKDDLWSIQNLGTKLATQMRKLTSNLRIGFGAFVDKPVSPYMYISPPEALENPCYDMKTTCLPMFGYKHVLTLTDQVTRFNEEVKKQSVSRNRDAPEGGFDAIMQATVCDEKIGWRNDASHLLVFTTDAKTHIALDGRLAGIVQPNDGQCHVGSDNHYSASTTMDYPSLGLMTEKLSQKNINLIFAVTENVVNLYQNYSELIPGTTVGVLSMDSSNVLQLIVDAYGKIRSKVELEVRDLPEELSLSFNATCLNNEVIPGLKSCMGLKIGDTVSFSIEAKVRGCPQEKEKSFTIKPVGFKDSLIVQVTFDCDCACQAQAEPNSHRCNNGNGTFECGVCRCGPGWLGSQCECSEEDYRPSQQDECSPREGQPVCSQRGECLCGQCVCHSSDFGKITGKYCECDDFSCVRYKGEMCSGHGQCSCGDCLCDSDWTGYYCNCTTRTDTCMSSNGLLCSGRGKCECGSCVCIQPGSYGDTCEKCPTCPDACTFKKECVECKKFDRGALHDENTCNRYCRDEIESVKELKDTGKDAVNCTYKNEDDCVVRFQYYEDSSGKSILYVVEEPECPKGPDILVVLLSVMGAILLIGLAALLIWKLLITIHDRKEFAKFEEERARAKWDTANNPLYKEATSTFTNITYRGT
# Chain of Integrin alpha-V/beta-3 (P06756 31-889 limits assumed): as the sequence (P06756 31-889 limits assumed) above
# Chain of Integrin alpha-V/beta-3 (P06756 891-1048 limits assumed): as the sequence (P06756 891-1048 limits assumed) above
smiles,measurement,setting,value
O=C(O)C[C@@H](NC(=O)CNC(=O)c1cc(O)cc(NC2=NCC(F)CN2)c1)c1cc(Cl)cc(Br)c1O (some centres undefined),IC50,[1],1 nM
same,IC50,[2],366 nM
same,bioavailability,[3],5.9%
same,half-life,[4],2 h
same,Activity,[5],Dose-dependent effect
same,Activity,[6],62%
same,Activity,[7],53%
same,Activity,[8],Active
same,Activity,[9],60%
same,Activity,[10],55%
same,Activity,[11],64%
same,concentration at 6 h,[12],3300 ng/mL
same,concentration at 6 h,[13],19400 ng/mL
same,concentration at 6 h,[14],84400 ng/mL
